# Conditions: at the end of the third month after implantation
smiles,measurement,value
"Cc1nc2n(c(=O)c1CCN1CCC(c3noc4cc(F)ccc34)CC1)CCCC2 [Risperidone, risperidone]",presence of risperidone in the dog plasma,still present at a high level
